The values that follow come from patent publication US20060223790A1, “Modulation of Microglial by Nicotinic Medications” (University of South Florida, priority 2004, published 2006).

One assay has as its system APP transgenic mice. Particulars: cited from earlier work; for Aβ deposition: APP transgenic mice.
Assay [1] has as its system primary cultured microglial cells. It is filed as cell-based, mouse.
The test system of the next assay is p44/42 MAPK. It is filed as cell-based, mouse.
Assay [2] deals with primary cultured microglial cells. It is filed as cell-based, mouse. This is another data set of the same source.
The test system of the next assay is microglia. Conditions: cited from earlier work.

In the case of `COc1cc(/C=C/C(=O)CC(=O)/C=C/c2ccc(O)c(OC)c2)ccc1O` [curcumin], in the assay on APP transgenic mice, the Aβ deposition result was “reduced”.
As to α-bungarotoxin, the “effect on galantamine/nicotine inhibition of microglial NO release” value in assay [1] is “significantly attenuates”. In addition, the “effect on galantamine/nicotine inhibition of phosphorylation of p44/42 MAPK” value with p44/42 MAPK was “significantly attenuated”.
Turning to `CC(C)Cc1ccc(C(C)C(=O)O)cc1` (stereo not shown) [ibuprofen], the Aβ deposition result in the assay with APP transgenic mice is “reduced”.
With `Oc1c(I)cc(Cl)c2cccnc12` [clioquinol], the Aβ deposition entry in the assay with APP transgenic mice is on record as “reduced”.
On to `CN1CCCC1c1cccnc1` (stereo not shown) [nicotine], for which the “HIV-1 gp120/IFN-Υ-induced TNF-α production” value in assay [2] is reported as “slight reduction”. Further, in assay [1], the “HIV-1 gp120/IFN-Υ-induced NO release” value is reported as “slight reduction”. In addition, in the assay with microglia, the “LPS-induced TNF-α release” value is on record as “inhibit” and the “microglial activation induced by bacterial endotoxin (LPS)” value was “reduced”. Besides, the “reduction in β-amyloid plaque” value in the assay on APP transgenic mice (mouse, in vivo) is given as “comparable”.
